The text below walks through data of article PMC9032718, “Eltrombopag as an Allosteric Inhibitor of the METTL3-14 Complex Affecting the m^6A Methylation of RNA in Acute Myeloid Leukemia Cells” (Pharmaceuticals, 2022).

A word on the inhibition: it is the change of the read-out against control, counted positive when it falls.

For one assay, the target named is T1, METTL14 (Homo sapiens, UniProt Q9HCE5).
T1 construct: 10x His (thrombin-cleavable); made in house; host or cells: insect cells, baculovirus (pVL1393)
T1 sequence (Q9HCE5 1-456): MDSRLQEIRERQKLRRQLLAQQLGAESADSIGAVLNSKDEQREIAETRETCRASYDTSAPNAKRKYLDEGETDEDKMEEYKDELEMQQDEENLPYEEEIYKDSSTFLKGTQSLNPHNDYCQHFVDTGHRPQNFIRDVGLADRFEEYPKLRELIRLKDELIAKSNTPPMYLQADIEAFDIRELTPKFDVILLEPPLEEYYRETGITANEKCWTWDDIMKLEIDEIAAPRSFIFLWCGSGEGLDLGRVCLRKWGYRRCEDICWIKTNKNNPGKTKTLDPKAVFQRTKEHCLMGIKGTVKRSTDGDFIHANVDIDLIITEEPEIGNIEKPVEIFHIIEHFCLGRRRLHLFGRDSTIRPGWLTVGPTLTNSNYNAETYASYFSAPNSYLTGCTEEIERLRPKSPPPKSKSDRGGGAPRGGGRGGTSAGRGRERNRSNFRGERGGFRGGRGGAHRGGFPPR
Description: Bioluminescence enzyme assay, single form of METTL14. Conditions: 36 μM eltrombopag; 300 nM METTL14, 5 h; read-out: % inhibition, single subunit enzyme form of METTL14. The class given is biochemical. The method, then:
An enzymatic bioluminescence assay was established to identify the METTL3-14 inhibitor through screening. […] METTL3-14 activity was assessed by measuring the luminescence using a Victor multilabel reader (PerkinElmer, Waltham, MA, USA). The IC50 values were calculated by a nonlinear regression analysis using OriginPro 9.1 software (OriginLab).
To confirm the mechanism of action of eltrombopag in the METTL3-14 complex, 30 nM METTL3-14 and serially diluted eltrombopag were reacted with various concentrations of SAM or RNA substrate and saturating concentrations of the other substrate (3 μM SAM or 2 μM RNA substrate) for 20 min. To evaluate the inhibitory activity in a single form of METTL3 and METTL14, 1 μM of METTL3 and 300 nM of METTL14 were incubated with 1 μM of SAM, 500 nM of RNA substrates, and serially diluted eltrombopag for 5 h. To measure the inhibitory activity in the truncated form of the METTL3-14 complex, 1 μM of the truncated METTL3-14 complex was reacted with 1 μM of SAM, 500 nM of RNA substrates, and serially diluted eltrombopag for 5 h.

The test system of assay [1] is m^6A/A on poly-A+-enriched mRNA of MOLM-13 cells. Put plainly: Quantitative analysis of m^6A level on poly-A+-enriched mRNA by mass spectrometry. The class given is cell-based. Conditions: Homo sapiens. The method, then:
The MOLM-13 cells were seeded in 10 cm^2 dishes at a density of 1.5 × 10^6 cells/mL with 10 mL of complete medium. After 24 h, the plated cells were treated with the vehicle (DMSO) or serial dilutions of eltrombopag and incubated for 24 h. Following incubation in the cell culture incubator, total RNA was extracted using TRIsure^TM (Bioline, Brisbane, Australia) according to the manufacturer’s instructions. Then, poly-A^+-enriched mRNA was purified from the extracted total RNA using the Magnosphere^TM ultrapure mRNA purification kit (Takara, Shiga, Japan). One microgram of mRNA was digested to the nucleosides using 2 units of nuclease P1 (NEB) and dephosphorylated using 1 unit of alkaline phosphatase (NEB) at 37 °C for 2 h.
The produced nucleosides were detected by reversed-phase high-performance liquid chromatography on an ACQUITY BEH C18 column (1.7 μm, 2.1 mm × 50 mm; Waters) coupled with mass spectrometry detection using an EVOQ Elite ER LC-TQ (Bruker). The adenosine and m^6A were quantified using MRM transition as follows: m/z = 267.9 -> 136.1 and m/z = 282.1 -> 150.1, respectively. (Retention time 5 min). The m^6A/A nucleoside ratio of the eltrombopag-treated sample was normalized to the corresponding value of the DMSO treated negative control. The inhibition curves were plotted using OriginPro 9.1 software (OriginLab) and fitted using nonlinear regression analysis.

The subject of assay [2] is AML cell line transplanted mouse. On the set-up: method as in PMID 22627766. As to conditions: mouse model transplanted with an AML cell line; cited from earlier work.

For the compound `CC1=NN(c2ccc(C)c(C)c2)C(=O)/C1=N\Nc1cccc(-c2cccc(C(=O)O)c2)c1O` [Eltrombopag], on METTL14, the inhibition at 36 µM came to 59.3%. The inhibition at 40 µM in assay [1] (MOLM-13, 40 μM, 24 h, read-out: maximum m^6A inhibition) was 50%. Besides, in assay [1] (MOLM-13, 24 h treatment, read-out: IC50 of m^6A/A reduction on poly-A+-enriched mRNA), the IC50 stood at 17.3 ± 3.5 µM. The “in-vivo anti-leukemic effect (survival)” value in assay [2] is listed as “prolonging the survival”.
